Test results: ChEMBL document CHEMBL1201862, “PubChem BioAssay data set” (2004)
Activity calls are given as the source filed them.

Assays:
[1] = biological target: Serine/threonine-protein phosphatase (Homo sapiens, UniProt Q9BPW0); assay: PP5 phosphatase inhibitors, dose response, biochemical, fluorescence (AID 2395)
[2] = biological target: Serine/threonine-protein phosphatase PP1-alpha catalytic subunit (Homo sapiens, UniProt P62136); assay: PP1 phosphatase inhibitors, dose response, biochemical, fluorescence (AID 2394)
NADPH oxidase 1 = NADPH oxidase 1 (Homo sapiens, UniProt Q9Y5S8); assay: Late-stage luminescence-based cell-based dose response assay to identify inhibitors of NADPH oxidase 1 (NOX1): Synthesized analogs.; assay type: functional
[3] = biological target: T1, Long-chain-fatty-acid--AMP ligase FadD28 (Mycobacterium tuberculosis, UniProt P9WQ59); assay: Fluorescence polarization aasay to screen for inhibitors that compete for the binding of FadD28 to a bisubstrate Measured in Biochemical System Using Plate Reader - 2147-01_Inhibitor_Dose_CherryPick_Activity.; assay type: functional, Mycobacterium tuberculosis H37Rv
T1 sequence (P9WQ59 whole entry): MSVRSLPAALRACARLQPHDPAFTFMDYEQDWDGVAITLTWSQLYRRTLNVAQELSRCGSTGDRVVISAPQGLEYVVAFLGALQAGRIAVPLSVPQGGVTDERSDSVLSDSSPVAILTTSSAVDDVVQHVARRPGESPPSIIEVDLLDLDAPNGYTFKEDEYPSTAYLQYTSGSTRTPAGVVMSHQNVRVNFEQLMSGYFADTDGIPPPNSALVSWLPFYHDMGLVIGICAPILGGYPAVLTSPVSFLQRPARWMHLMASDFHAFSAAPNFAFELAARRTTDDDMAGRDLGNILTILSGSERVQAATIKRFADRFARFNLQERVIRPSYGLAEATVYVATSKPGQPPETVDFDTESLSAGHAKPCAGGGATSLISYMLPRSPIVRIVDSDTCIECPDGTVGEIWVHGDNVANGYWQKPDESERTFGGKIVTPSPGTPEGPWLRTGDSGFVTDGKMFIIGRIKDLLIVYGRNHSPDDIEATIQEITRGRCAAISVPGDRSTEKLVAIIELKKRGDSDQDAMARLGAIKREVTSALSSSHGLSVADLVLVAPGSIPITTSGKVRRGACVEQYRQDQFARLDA

[4] = biological target: Voltage-gated inwardly rectifying potassium channel KCNH2 (Homo sapiens, UniProt Q12809); assay: hERG protection from proarrhythmic block, potency, dose response, cell-based, thallium flux (AID 2121); assay type: ADME
Galanin receptor type 2 = Galanin receptor type 2 (Homo sapiens, UniProt O43603); assay: Dose Response cell-based high-throughput screening assay to identify antagonists of galanin receptor 2 (GALR2). [Related pubchem assays: 828, 866 ]; assay type: functional
[5] = half-maximal inhibitory concentration for glucagon-like peptide-1 release, STC-1 cell line, dose-response (AID 1117345); assay type: functional, cell-based
[6] = Glucagon-like peptide 1 release potency, NCI-H716 cell line, dose-response, half-maximal inhibitory concentration (AID 1117344); assay type: functional, cell-based
[7] = biological target: Aryl hydrocarbon receptor (Homo sapiens, UniProt P35869); assay: Luminescence-based cell-based high throughput dose response assay for activators of the Aryl Hydrocarbon Receptor (AHR). [Related pubchem assays: 2796 (Primary screen (AHR activators in singlicate)), 2845 (Confirmation screen (AHR activators in triplicate)), 434939 (Counterscreen (PXR activators in triplicate)), 2804 (Summary (AHR activators))]; assay type: ADME
Vero [8] = assay: cells; assay type: functional; settings: Chlorocebus sabaeus
Vero [9] = assay: West Nile virus antiviral activity, cell-based, CPE readout (AID 1621); assay type: functional; settings: Chlorocebus sabaeus
Vero [10] = assay: cells; assay type: functional, cell-based; settings: Chlorocebus sabaeus
[11] = Luminescence Cell-Based Dose Confirmation HTS to Identify Inhibitors of Platelet Dense Granule Release. [Related pubchem assays: 1663 (Primary HTS), 1678 (Summary of Project)]; assay type: functional
[12] = inhibitors of firefly luciferase expression or activity, dose response, H4 neuroglioma cells, luminescence (AID 1990); assay type: functional, cell-based
[13] = Fluorescence Cell-Based Dose Response to Identify Inhibitors of Thrombin Receptor-Activating Peptide SFLLRN-Mediated P-Selectin Induction on Platelets. [Related pubchem assays: 1663 (Primary HTS), 1889 (retest at dose ), 1891 (counterscreen), 1678 (Project Summary)]; assay type: functional
[14] = inhibitors of SNCA 5'UTR-driven reporter translation, confirmation, H4 neuroglioma cells, luminescence (AID 1988); assay type: functional, cell-based
[15] = biological target: Luciferin 4-monooxygenase (Photinus pyralis, UniProt P08659); assay: firefly luciferase enzyme inhibitors, dose response, biochemical, luminescence (AID 1891)
[16] = Luminescence Cell-Based Dose Response HTS to Identify Inhibitors of 5'UTR Stem-Loop Driven Prion Protein mRNA Translation in H4 Neuroglioblastoma Cells. [Related pubchem assays: 1827 (Project Summary), 1813 (Primary HTS)]; assay type: functional
[17] = P. falciparum Dd2 growth inhibitors, dose response, SYBR Green, dry powder samples, set 9 (AID 1159568); assay type: functional, cell-based
Prothrombin = Prothrombin (Homo sapiens, UniProt P00734); assay: Thrombin 1536 HTS Dose Response Confirmation. [Related pubchem assays: 1046 (Thrombin 1536 HTS; hits were confirmed in this assay)]; assay type: functional
[18] = biological target: Complement C1s subcomponent (Homo sapiens, UniProt P09871); assay: Complement C1s ELISA. [Related pubchem assays: 538, 787 ]; assay type: functional
[19] = inhibitors of Vif binding to APOBEC3G peptide, primary screen, biochemical, TR-FRET, GST-Vif 1-94, biotin-A3G peptide, dose response retest (AID 1117319); assay type: functional;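 also: TR-FRET signal of purified GST-Vif binding a biotinylated A3G peptide; inhibitors lower the FRET signal by blocking Vif and A3G binding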
Streptococcus = assay: Group A Streptococcus viability loss, dose response, counter-screen for streptokinase expression inhibitor project, luminescence, BacTiterGlo (AID 1915); assay type: functional, organism-based;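 also: potency for reduction of bacterial viability or growth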
Beta-galactosidase = Beta-galactosidase (Escherichia coli, UniProt Q8VNN2); assay: beta-galactosidase enzyme inhibitors and activators, dose response, artefact control for CCR6 antagonist project, biochemical, E. coli enzyme, set 3 (AID 504712); assay type: functional
[20] = biological target: Induced myeloid leukemia cell differentiation protein Mcl-1 (Homo sapiens, UniProt Q07820); assay type: functional
Bcl-2-like protein 10 = biological target: T2, Bcl-2-like protein 10 (Homo sapiens, UniProt Q9HD36); assay: displacers of TR3 peptide from Bcl-B, primary screen, selectivity assay for Bfl-1 inhibitor project, biochemical, fluorescence polarization, FITC-TR3 peptide (AID 748);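 also: fluorescence polarization from a fluorescein-labelled TR3 peptide binding purified Bcl-B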
T2 sequence (Q9HD36 whole entry): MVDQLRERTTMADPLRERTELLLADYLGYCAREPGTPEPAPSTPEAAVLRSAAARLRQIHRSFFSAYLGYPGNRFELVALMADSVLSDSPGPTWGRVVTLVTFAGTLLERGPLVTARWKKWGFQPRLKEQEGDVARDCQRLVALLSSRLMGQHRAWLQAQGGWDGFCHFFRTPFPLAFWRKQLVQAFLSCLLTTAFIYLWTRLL

[21] = biological target: DNA (cytosine-5)-methyltransferase 1 (Homo sapiens, UniProt P26358); assay: DNMT1 methyltransferase inhibitors, confirmation, biochemical, fluorescent molecular beacon (AID 602386); assay type: functional
Phospholipase A2 = Phospholipase A2 (Homo sapiens, UniProt P04054); assay type: functional;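 also: confirmatory dose-response counterscreen on phospholipase A2, testing hits that came from an ultra-high-throughput screen for ATG4B inhibitors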
Cysteine protease ATG4B = biological target: T3, Cysteine protease ATG4B (Homo sapiens, UniProt Q9Y4P1); assay type: functional;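 also: Fluorescence-based dose-response confirmation assay measuring inhibition of ATG4B activity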
T3 sequence (Q9Y4P1 whole entry): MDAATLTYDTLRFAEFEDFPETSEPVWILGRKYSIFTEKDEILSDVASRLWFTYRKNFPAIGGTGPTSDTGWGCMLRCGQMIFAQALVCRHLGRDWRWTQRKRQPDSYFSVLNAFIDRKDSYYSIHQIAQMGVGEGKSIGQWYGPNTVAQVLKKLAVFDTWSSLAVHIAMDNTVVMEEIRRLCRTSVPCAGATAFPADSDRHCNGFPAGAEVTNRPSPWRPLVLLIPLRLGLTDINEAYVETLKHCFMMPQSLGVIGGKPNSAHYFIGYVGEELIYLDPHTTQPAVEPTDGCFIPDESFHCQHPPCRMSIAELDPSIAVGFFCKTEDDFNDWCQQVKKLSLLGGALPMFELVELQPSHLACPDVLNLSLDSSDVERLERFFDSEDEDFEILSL

Genome polyprotein = Genome polyprotein (Hepatitis C virus, UniProt Q2Q167); assay: HCV core protein dimerization inhibitors, dose response, biochemical, TR-FRET (AID 2159); design: species or system Hepacivirus hominis;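 also: blocks dimerization of HCV core protein measured by TR-FRET between tagged core106 pairs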
[22] = system: Streptococcus sp. 'group A'; assay: growth inhibition of control SK(-) GAS strain, dose response, counter-screen for streptokinase expression inhibitor project, luminescence, kanamycin, BacTiterGlo, confirmation (AID 1900); assay type: functional, organism-based

Sequence of Aryl hydrocarbon receptor (P35869 whole entry): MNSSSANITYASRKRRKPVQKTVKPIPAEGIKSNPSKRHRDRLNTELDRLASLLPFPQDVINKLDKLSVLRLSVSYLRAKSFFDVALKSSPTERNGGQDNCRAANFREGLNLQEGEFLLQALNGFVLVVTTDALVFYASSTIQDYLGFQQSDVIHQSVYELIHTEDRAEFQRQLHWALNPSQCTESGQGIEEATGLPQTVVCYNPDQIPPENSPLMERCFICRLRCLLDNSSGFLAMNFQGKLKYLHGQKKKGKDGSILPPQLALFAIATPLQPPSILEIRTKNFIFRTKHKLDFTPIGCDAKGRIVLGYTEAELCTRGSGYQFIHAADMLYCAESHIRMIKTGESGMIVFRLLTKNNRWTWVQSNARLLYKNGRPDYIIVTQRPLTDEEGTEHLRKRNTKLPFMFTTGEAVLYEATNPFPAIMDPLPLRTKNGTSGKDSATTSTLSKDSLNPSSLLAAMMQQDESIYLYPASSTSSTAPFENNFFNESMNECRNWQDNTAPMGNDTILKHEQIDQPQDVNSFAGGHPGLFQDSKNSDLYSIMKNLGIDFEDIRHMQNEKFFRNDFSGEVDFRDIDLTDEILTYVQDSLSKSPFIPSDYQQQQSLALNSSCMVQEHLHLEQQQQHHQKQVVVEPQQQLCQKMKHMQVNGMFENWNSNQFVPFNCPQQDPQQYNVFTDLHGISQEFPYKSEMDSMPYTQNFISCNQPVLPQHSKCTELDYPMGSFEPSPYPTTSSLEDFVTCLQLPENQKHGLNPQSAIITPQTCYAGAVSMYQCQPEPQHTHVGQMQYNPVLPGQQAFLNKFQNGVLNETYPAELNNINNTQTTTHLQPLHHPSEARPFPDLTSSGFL
Sequence of Galanin receptor type 2 (O43603 whole entry): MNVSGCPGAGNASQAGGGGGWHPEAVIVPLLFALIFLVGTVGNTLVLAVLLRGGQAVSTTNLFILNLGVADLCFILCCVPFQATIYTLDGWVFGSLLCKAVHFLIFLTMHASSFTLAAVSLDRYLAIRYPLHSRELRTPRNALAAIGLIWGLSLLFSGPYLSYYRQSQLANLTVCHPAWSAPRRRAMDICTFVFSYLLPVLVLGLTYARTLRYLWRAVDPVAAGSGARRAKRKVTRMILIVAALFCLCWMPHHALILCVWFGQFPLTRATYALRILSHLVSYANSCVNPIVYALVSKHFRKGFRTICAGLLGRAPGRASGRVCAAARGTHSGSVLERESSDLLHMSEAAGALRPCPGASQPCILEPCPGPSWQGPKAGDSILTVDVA
Sequence of Genome polyprotein (Q2Q167 whole entry): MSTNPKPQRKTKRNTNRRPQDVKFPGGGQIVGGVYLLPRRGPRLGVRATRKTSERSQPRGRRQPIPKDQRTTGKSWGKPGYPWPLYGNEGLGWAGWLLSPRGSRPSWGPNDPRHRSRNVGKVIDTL
Sequence of Voltage-gated inwardly rectifying potassium channel KCNH2 (Q12809 whole entry): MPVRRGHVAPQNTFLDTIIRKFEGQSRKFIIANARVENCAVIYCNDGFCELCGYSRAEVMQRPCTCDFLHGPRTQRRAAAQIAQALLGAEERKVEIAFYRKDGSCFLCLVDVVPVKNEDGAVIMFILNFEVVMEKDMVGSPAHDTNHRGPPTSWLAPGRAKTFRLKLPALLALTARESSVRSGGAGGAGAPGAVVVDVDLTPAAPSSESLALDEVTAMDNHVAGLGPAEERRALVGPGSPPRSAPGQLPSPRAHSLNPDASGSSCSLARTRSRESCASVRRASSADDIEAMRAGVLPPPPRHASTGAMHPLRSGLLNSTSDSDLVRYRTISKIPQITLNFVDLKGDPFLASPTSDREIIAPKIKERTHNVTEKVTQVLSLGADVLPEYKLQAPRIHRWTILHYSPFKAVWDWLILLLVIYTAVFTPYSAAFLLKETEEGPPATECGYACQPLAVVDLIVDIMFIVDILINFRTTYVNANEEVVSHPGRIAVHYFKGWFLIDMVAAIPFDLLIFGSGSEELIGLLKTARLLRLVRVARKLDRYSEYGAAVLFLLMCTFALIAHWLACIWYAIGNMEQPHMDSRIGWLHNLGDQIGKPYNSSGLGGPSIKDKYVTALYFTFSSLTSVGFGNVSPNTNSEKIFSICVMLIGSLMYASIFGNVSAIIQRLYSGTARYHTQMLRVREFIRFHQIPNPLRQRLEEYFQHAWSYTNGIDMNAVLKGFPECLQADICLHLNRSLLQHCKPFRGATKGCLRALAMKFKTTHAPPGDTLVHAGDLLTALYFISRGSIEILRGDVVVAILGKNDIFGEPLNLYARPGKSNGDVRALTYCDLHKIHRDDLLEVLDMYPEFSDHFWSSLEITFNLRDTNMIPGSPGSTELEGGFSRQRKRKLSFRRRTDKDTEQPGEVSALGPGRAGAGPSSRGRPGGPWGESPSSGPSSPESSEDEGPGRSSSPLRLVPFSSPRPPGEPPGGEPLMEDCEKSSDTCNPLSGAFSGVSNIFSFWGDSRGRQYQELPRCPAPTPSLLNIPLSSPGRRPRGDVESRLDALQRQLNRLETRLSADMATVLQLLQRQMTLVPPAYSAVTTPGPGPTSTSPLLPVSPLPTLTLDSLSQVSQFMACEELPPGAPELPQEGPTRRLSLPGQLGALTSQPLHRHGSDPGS
Sequence of Luciferin 4-monooxygenase (P08659 whole entry): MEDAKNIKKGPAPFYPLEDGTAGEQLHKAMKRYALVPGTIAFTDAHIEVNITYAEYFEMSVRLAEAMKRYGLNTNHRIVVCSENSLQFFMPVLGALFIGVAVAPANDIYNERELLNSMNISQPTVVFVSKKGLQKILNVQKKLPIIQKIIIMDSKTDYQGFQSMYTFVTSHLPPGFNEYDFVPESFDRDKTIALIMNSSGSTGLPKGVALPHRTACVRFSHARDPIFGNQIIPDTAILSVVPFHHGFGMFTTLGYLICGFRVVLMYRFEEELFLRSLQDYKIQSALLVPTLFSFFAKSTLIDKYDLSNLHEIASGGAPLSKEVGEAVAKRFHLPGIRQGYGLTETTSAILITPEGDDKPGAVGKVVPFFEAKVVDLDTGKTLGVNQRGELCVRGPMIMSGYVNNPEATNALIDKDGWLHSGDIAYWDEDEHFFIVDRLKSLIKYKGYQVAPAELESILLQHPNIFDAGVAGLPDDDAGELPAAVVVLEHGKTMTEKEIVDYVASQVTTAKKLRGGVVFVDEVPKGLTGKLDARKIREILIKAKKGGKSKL
Sequence of Induced myeloid leukemia cell differentiation protein Mcl-1 (Q07820 whole entry): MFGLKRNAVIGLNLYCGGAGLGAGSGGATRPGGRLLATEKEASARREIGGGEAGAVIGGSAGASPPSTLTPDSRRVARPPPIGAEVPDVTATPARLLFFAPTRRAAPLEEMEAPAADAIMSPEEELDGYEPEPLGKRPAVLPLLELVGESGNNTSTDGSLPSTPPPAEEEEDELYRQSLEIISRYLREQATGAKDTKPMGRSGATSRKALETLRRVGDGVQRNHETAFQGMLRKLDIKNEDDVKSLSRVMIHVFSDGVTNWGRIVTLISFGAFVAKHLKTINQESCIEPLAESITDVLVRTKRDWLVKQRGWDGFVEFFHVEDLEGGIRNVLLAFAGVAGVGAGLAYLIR
Sequence of Serine/threonine-protein phosphatase PP1-alpha catalytic subunit (P62136 whole entry): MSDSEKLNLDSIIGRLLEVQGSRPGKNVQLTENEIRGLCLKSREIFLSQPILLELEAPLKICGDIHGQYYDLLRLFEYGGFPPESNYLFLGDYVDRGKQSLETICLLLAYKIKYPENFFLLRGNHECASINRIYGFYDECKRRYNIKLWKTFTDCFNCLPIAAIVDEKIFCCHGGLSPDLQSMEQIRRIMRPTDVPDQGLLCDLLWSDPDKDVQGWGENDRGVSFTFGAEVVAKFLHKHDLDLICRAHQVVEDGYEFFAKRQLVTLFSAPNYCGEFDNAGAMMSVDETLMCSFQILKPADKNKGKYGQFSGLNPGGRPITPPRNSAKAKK
Sequence of NADPH oxidase 1 (Q9Y5S8 whole entry): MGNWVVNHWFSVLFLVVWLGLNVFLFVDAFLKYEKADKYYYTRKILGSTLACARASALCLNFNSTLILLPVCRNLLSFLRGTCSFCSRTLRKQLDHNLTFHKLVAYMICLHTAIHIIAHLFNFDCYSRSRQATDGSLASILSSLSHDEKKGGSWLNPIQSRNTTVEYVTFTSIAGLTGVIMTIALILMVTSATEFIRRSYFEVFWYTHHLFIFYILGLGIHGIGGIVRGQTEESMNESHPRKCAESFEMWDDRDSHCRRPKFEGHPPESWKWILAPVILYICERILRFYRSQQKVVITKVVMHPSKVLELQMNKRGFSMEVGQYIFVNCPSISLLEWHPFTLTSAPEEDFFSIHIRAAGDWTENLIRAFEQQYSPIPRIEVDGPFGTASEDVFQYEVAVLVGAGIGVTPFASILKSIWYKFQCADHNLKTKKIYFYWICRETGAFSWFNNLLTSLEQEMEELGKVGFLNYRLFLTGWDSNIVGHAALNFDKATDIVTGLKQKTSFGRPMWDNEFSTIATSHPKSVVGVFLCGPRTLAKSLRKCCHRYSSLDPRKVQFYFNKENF
Sequence of Phospholipase A2 (P04054 whole entry): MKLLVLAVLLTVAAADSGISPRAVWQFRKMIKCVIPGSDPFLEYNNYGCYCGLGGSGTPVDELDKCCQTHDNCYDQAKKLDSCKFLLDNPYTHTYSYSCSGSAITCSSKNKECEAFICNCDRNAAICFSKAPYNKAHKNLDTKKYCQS
Sequence of Serine/threonine-protein phosphatase (Q9BPW0 whole entry): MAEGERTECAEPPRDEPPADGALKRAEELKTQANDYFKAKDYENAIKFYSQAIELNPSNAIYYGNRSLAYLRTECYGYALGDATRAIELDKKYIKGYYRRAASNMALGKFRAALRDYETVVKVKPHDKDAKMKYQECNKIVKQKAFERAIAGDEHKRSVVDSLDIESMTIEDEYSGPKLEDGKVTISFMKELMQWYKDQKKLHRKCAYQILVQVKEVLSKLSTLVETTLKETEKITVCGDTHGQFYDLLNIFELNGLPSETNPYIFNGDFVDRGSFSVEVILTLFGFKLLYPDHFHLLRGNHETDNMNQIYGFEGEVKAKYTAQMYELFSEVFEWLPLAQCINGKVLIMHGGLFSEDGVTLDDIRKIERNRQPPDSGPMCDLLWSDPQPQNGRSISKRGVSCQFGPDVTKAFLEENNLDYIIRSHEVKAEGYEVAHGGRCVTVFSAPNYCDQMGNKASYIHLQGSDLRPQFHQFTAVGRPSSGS

With `O=C(O)c1[nH]nnc1-c1ccccc1` the IC50 [1] was 13 µM (not active) and the IC50 [2] was > 67 µM (not active).
In the case of `O=C(c1ccco1)N1c2ccccc2Sc2ccccc21`, the IC50 (NADPH oxidase 1) is reported as 6.37 µM (active).
With `Cc1nn(-c2cccc3ccccc23)c(O)c1/C=N/c1sc2c(c1C#N)CCC2` the AC50 [3] was 91.8 µM (active) and the EC50 [4] was 6.13 µM (active).
In the case of `Cc1nnc(SCC(=O)Nc2cccc(S(=O)(=O)N(C)c3ccccc3)c2)s1`, the IC50 (Galanin receptor type 2) is reported as > 42 µM (not active).
With `Oc1cccc2cccnc12` the IC50 [5] was > 20 µM (inactive) and the IC50 [6] was > 40 µM (inactive).
In the case of `COc1ccc(/C=N/NC(=O)c2cccc(NC(=O)c3ccc(F)cc3)c2)c(C(=O)O)c1OC`, the EC50 [7] is reported as 5.48 µM (active).
For `Cc1ccc(S(=O)(=O)N(C)C)cc1NC(=O)c1cncc(Br)c1`, the CC50 (Vero [8]) was > 25 µM (active), the IC50 (Vero [9]) was 32 µM (active) and the IC50 (Vero [10]) was > 25 µM (active).
With `COc1cc2c(cc1OC)-c1cc(Nc3ccccc3C)nc(=O)n1CC2` the EC50 [11] was 0.24 µM (active), the EC50 [12] was 15.6 µM (active) and the EC50 [13] was < 0.3 µM (active). For the same compound, the EC50 [14] was 17.8 µM (active), the EC50 [15] was > 112 µM (not active) and the EC50 [16] was 49.5 µM (active).
In the case of `O=C(Nc1ccccc1F)N1CCCCN2[C@H](C1)[C@H](c1ccc(/C=C/c3ccccc3)cc1)[C@@H]2CO`, the AC50 [17] is reported as 3.61 µM (active).
In the case of `COc1ccc(-c2nc(SC)n(C(=O)c3ccco3)n2)cc1`, the IC50 (Prothrombin) is reported as 1.14 µM (active) and the IC50 [18] is reported as > 50 µM (not active).
For `COc1cccc(-c2cc(C(=O)Nc3cnn(Cc4ccccc4C)c3)no2)c1`, the IC50 [19] was > 100 µM (active).
In the case of `CCOc1cc(/C=C2\C(=O)N(c3nc(-c4ccc(Br)cc4)cs3)N=C2c2ccccc2)ccc1O`, the EC50 (Streptococcus) is reported as 3.67 µM (active), the IC50 (Beta-galactosidase) is reported as > 66.6 µM (inactive) and the IC50 [20] is reported as 2.54 µM (active). For the same compound, the IC50 (Bcl-2-like protein 10) was 43.8 µM (active), the IC50 [21] was 4.35 µM (active) and the IC50 (Phospholipase A2) was 6.97 µM (active). The IC50 (Cysteine protease ATG4B) was 5.08 µM (active), the IC50 (Genome polyprotein) was > 49.8 µM (not active) and the EC50 [22] was 1.78 µM (active).
